Columns and labels:
Type in all cases: cell-based
[1] = test system: HIV-1 A17 (K103N and Y181C); assay: microbe, parasite or virus in culture; conditions: Human immunodeficiency virus 1, MT2, read-out: EC50 A17
HIV-1 IIIB = assay: HIV-1 infection assay using MT-2 cells; conditions: Human immunodeficiency virus 1, IIIB, MT2, read-out: EC50 IIIB
MT-2 cells = test system: MT-2 cells
HIV-1 NL4-3 = assay: Inhibition of HIV-1 infection of TZM-bl cells; conditions: wild-type NL4-3

SMILES: CC(=O)OCc1cc(N)c(Nc2ccc(C#N)cc2)cc1Oc1c(C)cc(CCC#N)cc1C [Compound 6h, 4-Acetoxymethyl-5-[4″-(2-cyanoethyl)-2″,6″-dimethylphenoxy]-N^1-(4′-cyanophenyl)benzene-1,2-diamine]
- EC50 [1]: 4.92 ± 0.12 nM
- EC50 (HIV-1 IIIB): 0.96 ± 0.12 nM
- SI (selective index) CC50/EC50(IIIB) (MT-2 cells): 46,667

SMILES: COCc1cc(N)c(Nc2ccc(C#N)cc2)cc1Oc1c(C)cc(CCC#N)cc1C [Compound 6k, 5-[4″-(2-Cyanoethyl)-2″,6″-dimethylphenoxy]-N^1-(4′-cyanophenyl)-4-methoxymethylbenzene-1,2-diamine]
- EC50 [1]: 2.95 ± 0.5 nM
- EC50 (HIV-1 IIIB): 3.25 ± 0.23 nM
- SI (selective index) CC50/EC50(IIIB) (MT-2 cells): >61,538

SMILES: COC(=O)c1cc(N)c(Nc2ccc(C#N)cc2)cc1Oc1c(OC)cc(CCC#N)cc1OC [Compound 13c, 5-[4″-(2-Cyanoethyl)-2″,6″-dimethoxyphenoxy]-N^1-(4′-cyanophenyl)-4-methoxycarbonylbenzene-1,2-diamine]
- fold less potent than the corresponding bromo/methoxy-DAANs (14c and 14d) (HIV-1 NL4-3): at least 20 fold

SMILES: CNC(=O)c1cc(N)c(Nc2ccc(C#N)cc2)cc1Oc1c(OC)cc(CCC#N)cc1OC [Compound 13d, 5-[4″-(2-Cyanoethyl)-2″,6″-dimethoxyphenoxy]-N^1-(4′-cyanophenyl)-4-methylcarbamoylbenzene-1,2-diamine]
- fold less potent than the corresponding bromo/methoxy-DAANs (14c and 14d) (HIV-1 NL4-3): at least 20 fold
